#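 Following 48 hours of exposure in 96-well plates, responses at five concentrations were used to interpolate endpoints linearly. At the GI50, growth is halved. At the TGI there is no net growth.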
# Columns and labels:
# Test in all cases: inhibition of tumour cell growth, NCI panel, 48 h
# 786-0 renal = tested on: 786-0 renal
# A498 renal = tested on: A498 renal
# A549 NSCLC = tested on: A549 NSCLC
# ACHN renal = tested on: ACHN renal
# BT-549 breast = tested on: BT-549 breast
# CAKI-1 renal = tested on: CAKI-1 renal
# CCRF-CEM leukemia = tested on: CCRF-CEM leukemia
# COLO 205 colon = tested on: COLO 205 colon
# DU-145 prostate = tested on: DU-145 prostate
# EKVX NSCLC = tested on: EKVX NSCLC
# HCC-2998 colon = tested on: HCC-2998 colon
# HCT-116 colon = tested on: HCT-116 colon
# HCT-15 colon = tested on: HCT-15 colon
# HL-60(TB) leukemia = tested on: HL-60(TB) leukemia
# HOP-62 NSCLC = tested on: HOP-62 NSCLC
# HOP-92 NSCLC = tested on: HOP-92 NSCLC
# HS 578T breast = tested on: HS 578T breast
# HT29 colon = tested on: HT29 colon
# IGROV1 ovarian = tested on: IGROV1 ovarian
# K-562 leukemia = tested on: K-562 leukemia
# KM12 colon = tested on: KM12 colon
# LOX IMVI melanoma = tested on: LOX IMVI melanoma
# M14 melanoma = tested on: M14 melanoma
# MALME-3M melanoma = tested on: MALME-3M melanoma
# MCF7 breast = tested on: MCF7 breast
# MDA-MB-231 breast = tested on: MDA-MB-231 breast
# MDA-MB-435 = tested on: MDA-MB-435
# MDA-MB-468 breast = tested on: MDA-MB-468 breast
# MOLT-4 leukemia = tested on: MOLT-4 leukemia
# NCI-H226 lung = tested on: NCI-H226 lung
# NCI-H23 lung = tested on: NCI-H23 lung
# NCI-H460 lung = tested on: NCI-H460 lung
# NCI-H522 lung = tested on: NCI-H522 lung
# NCI/ADR-RES ovarian = tested on: NCI/ADR-RES ovarian
# OVCAR-3 ovarian = tested on: OVCAR-3 ovarian
# OVCAR-4 ovarian = tested on: OVCAR-4 ovarian
# OVCAR-5 ovarian = tested on: OVCAR-5 ovarian
# OVCAR-8 ovarian = tested on: OVCAR-8 ovarian
# PC-3 prostate = tested on: PC-3 prostate
# RPMI-8226 leukemia = tested on: RPMI-8226 leukemia
# RXF 393 renal = tested on: RXF 393 renal
# SF-268 CNS = tested on: SF-268 CNS
# SF-295 CNS = tested on: SF-295 CNS
# SF-539 CNS = tested on: SF-539 CNS
# SK-MEL-2 melanoma = tested on: SK-MEL-2 melanoma
# SK-MEL-28 melanoma = tested on: SK-MEL-28 melanoma
# SK-MEL-5 melanoma = tested on: SK-MEL-5 melanoma
# SK-OV-3 ovarian = tested on: SK-OV-3 ovarian
# SN12C renal = tested on: SN12C renal
# SNB-19 CNS = tested on: SNB-19 CNS
# SNB-75 CNS = tested on: SNB-75 CNS
# SR leukemia = tested on: SR leukemia
# SW-620 colon = tested on: SW-620 colon
# T-47D breast = tested on: T-47D breast
# TK-10 renal = tested on: TK-10 renal
# U251 CNS = tested on: U251 CNS
# UACC-257 melanoma = tested on: UACC-257 melanoma
# UACC-62 melanoma = tested on: UACC-62 melanoma
# UO-31 renal = tested on: UO-31 renal
compound,measurement,setting,value
COc1ccc2[nH]cc(/C=N/Nc3ccc(Br)cn3)c2c1,GI50,786-0 renal,12.6 µM
same,TGI,786-0 renal,40.1 µM
same,GI50,A498 renal,20.5 µM
same,TGI,A498 renal,61.7 µM
same,GI50,A549 NSCLC,8.12 µM
same,TGI,A549 NSCLC,> 100 µM
same,GI50,ACHN renal,7.76 µM
same,TGI,ACHN renal,> 100 µM
same,GI50,BT-549 breast,0.176 µM
same,TGI,BT-549 breast,> 100 µM
same,GI50,CAKI-1 renal,3.01 µM
same,TGI,CAKI-1 renal,> 100 µM
same,GI50,CCRF-CEM leukemia,0.466 µM
same,TGI,CCRF-CEM leukemia,41 µM
same,GI50,COLO 205 colon,15.7 µM
same,TGI,COLO 205 colon,67.9 µM
same,GI50,DU-145 prostate,13.3 µM
same,TGI,DU-145 prostate,> 100 µM
same,GI50,EKVX NSCLC,2.71 µM
same,TGI,EKVX NSCLC,> 100 µM
same,GI50,HCC-2998 colon,5.74 µM
same,TGI,HCC-2998 colon,32.5 µM
same,GI50,HCT-116 colon,5.97 µM
same,TGI,HCT-116 colon,> 100 µM
same,GI50,HCT-15 colon,4.46 µM
same,TGI,HCT-15 colon,> 100 µM
same,GI50,HL-60(TB) leukemia,2.54 µM
same,TGI,HL-60(TB) leukemia,28.3 µM
same,GI50,HOP-62 NSCLC,10.1 µM
same,TGI,HOP-62 NSCLC,> 100 µM
same,GI50,HOP-92 NSCLC,2.22 µM
same,TGI,HOP-92 NSCLC,19.3 µM
same,GI50,HS 578T breast,6.91 µM
same,TGI,HS 578T breast,68.2 µM
same,GI50,HT29 colon,8.77 µM
same,TGI,HT29 colon,> 100 µM
same,GI50,IGROV1 ovarian,0.634 µM
same,TGI,IGROV1 ovarian,6.41 µM
same,GI50,K-562 leukemia,2.94 µM
same,TGI,K-562 leukemia,> 100 µM
same,GI50,KM12 colon,2.71 µM
same,TGI,KM12 colon,24.7 µM
same,GI50,LOX IMVI melanoma,3.4 µM
same,TGI,LOX IMVI melanoma,24.7 µM
same,GI50,M14 melanoma,7.27 µM
same,TGI,M14 melanoma,> 100 µM
same,GI50,MALME-3M melanoma,82.7 µM
same,TGI,MALME-3M melanoma,> 100 µM
same,GI50,MCF7 breast,1.7 µM
same,TGI,MCF7 breast,> 100 µM
same,GI50,MDA-MB-231 breast,1.93 µM
same,TGI,MDA-MB-231 breast,8.71 µM
same,GI50,MDA-MB-435,6.73 µM
same,TGI,MDA-MB-435,> 100 µM
same,GI50,MDA-MB-468 breast,1.74 µM
same,TGI,MDA-MB-468 breast,6.4 µM
same,GI50,MOLT-4 leukemia,2.85 µM
same,TGI,MOLT-4 leukemia,> 100 µM
same,GI50,NCI-H226 lung,2.02 µM
same,TGI,NCI-H226 lung,> 100 µM
same,GI50,NCI-H23 lung,11.6 µM
same,TGI,NCI-H23 lung,> 100 µM
same,GI50,NCI-H460 lung,7.68 µM
same,TGI,NCI-H460 lung,> 100 µM
same,GI50,NCI-H522 lung,3.11 µM
same,TGI,NCI-H522 lung,33.5 µM
same,GI50,NCI/ADR-RES ovarian,5.33 µM
same,TGI,NCI/ADR-RES ovarian,> 100 µM
same,GI50,OVCAR-3 ovarian,11.6 µM
same,TGI,OVCAR-3 ovarian,> 100 µM
same,GI50,OVCAR-4 ovarian,43.2 µM
same,TGI,OVCAR-4 ovarian,> 100 µM
same,GI50,OVCAR-5 ovarian,4.17 µM
same,TGI,OVCAR-5 ovarian,79.4 µM
same,GI50,OVCAR-8 ovarian,20.8 µM
same,TGI,OVCAR-8 ovarian,> 100 µM
same,GI50,PC-3 prostate,2.55 µM
same,TGI,PC-3 prostate,> 100 µM
same,GI50,RPMI-8226 leukemia,1.62 µM
same,TGI,RPMI-8226 leukemia,9.07 µM
same,GI50,RXF 393 renal,2.09 µM
same,TGI,RXF 393 renal,31.5 µM
same,GI50,SF-268 CNS,5.23 µM
same,TGI,SF-268 CNS,> 100 µM
same,GI50,SF-295 CNS,9.13 µM
same,TGI,SF-295 CNS,48.4 µM
same,GI50,SF-539 CNS,2.65 µM
same,TGI,SF-539 CNS,37.3 µM
same,GI50,SK-MEL-2 melanoma,21.4 µM
same,TGI,SK-MEL-2 melanoma,81.8 µM
same,GI50,SK-MEL-28 melanoma,29.1 µM
same,TGI,SK-MEL-28 melanoma,> 100 µM
same,GI50,SK-MEL-5 melanoma,7.41 µM
same,TGI,SK-MEL-5 melanoma,25.3 µM
same,GI50,SK-OV-3 ovarian,6.19 µM
same,TGI,SK-OV-3 ovarian,> 100 µM
same,GI50,SN12C renal,2.38 µM
same,TGI,SN12C renal,65.9 µM
same,GI50,SNB-19 CNS,20.7 µM
same,TGI,SNB-19 CNS,> 100 µM
same,GI50,SNB-75 CNS,0.286 µM
same,TGI,SNB-75 CNS,55.1 µM
same,GI50,SR leukemia,4.8 µM
same,TGI,SR leukemia,58.3 µM
same,GI50,SW-620 colon,15.7 µM
same,TGI,SW-620 colon,> 100 µM
same,GI50,T-47D breast,3.22 µM
same,TGI,T-47D breast,> 100 µM
same,GI50,TK-10 renal,18.6 µM
same,TGI,TK-10 renal,> 100 µM
same,GI50,U251 CNS,15.9 µM
same,TGI,U251 CNS,> 100 µM
same,GI50,UACC-257 melanoma,25.1 µM
same,TGI,UACC-257 melanoma,> 100 µM
same,GI50,UACC-62 melanoma,8.45 µM
same,TGI,UACC-62 melanoma,> 100 µM
same,GI50,UO-31 renal,1.09 µM
same,TGI,UO-31 renal,> 100 µM

# Reference: PubChem BioAssay (NCI)
